Data as given in patent US20160002204A1 (Board of Regents, The University of Texas System, priority 2014, published 2016).

Experiments:
A549 cells = test: A549 proliferation (viability) assay, Cell Titer Fluor, 72 hours; type: cell-based; settings: Homo sapiens
In short: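 A549 cells in RPMI 1640 with 10% dialyzed FBS were seeded at 1000 cells/well, grown 24 h, then exposed to compound (0.5% DMSO final) for 72 h at 37 °C, 5% CO2. Viability was read by Cell Titer Fluor fluorescence; EC50 from four-parameter logistic fit.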

[1] = biological target: T1, GLS1 (purified recombinant human GAC) (Homo sapiens, UniProt O94925); test: GLS1 enzymatic activity assay (dual-coupled, Amplex UltraRed/resorufin); type: biochemical
T1 sequence (O94925 55-598 isoform O94925-3 limits assumed): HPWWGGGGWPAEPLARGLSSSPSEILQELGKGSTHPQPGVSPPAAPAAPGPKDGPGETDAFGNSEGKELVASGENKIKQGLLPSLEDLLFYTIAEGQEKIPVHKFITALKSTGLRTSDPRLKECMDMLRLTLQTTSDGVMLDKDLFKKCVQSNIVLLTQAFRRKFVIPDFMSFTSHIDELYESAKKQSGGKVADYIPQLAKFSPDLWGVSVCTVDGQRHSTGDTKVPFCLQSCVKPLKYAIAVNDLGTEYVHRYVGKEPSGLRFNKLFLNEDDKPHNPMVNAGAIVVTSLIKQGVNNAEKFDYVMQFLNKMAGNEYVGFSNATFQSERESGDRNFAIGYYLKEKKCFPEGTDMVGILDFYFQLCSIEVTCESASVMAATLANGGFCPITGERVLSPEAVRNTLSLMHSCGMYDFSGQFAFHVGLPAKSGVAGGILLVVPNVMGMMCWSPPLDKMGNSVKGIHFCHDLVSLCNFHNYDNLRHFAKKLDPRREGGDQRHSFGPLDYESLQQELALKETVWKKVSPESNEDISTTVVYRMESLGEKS
In short: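 GAC activity measured by coupling glutamate to glutamate oxidase and HRP, generating resorufin from Amplex UltraRed. Enzyme (2 nM) preincubated with 50 mM potassium phosphate 10 min at room temperature, then inhibitor 10 min; 1 mM glutamine substrate, 1% DMSO. Fluorescence 530/590 nm, kinetic or 20-min endpoint; IC50 from four-parameter logistic fit.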

Compound	EC50 (A549 cells)	IC50 [1]
O=C(Nc1ccn(CCCCc2nnc(C(=O)NCc3cccc(OC(F)(F)F)c3)s2)c(=O)n1)OCc1ccccc1 [Example 28, Benzyl 2-oxo-1-(4-(5-(3-(trifluoromethoxy)benzylcarbamoyl)-1,3,4-thiadiazol-2-yl)butyl)-1,2-dihydropyrimidin-4-ylcarbamate]	0.1 to 0.5 µM	< 0.1 µM
O=C(Nc1ccn(CCC(F)Cn2cc(C(=O)NCc3cc(OC(F)(F)F)ccc3F)nn2)c(=O)c1F)C(=O)N1CCC[C@@H](C(F)(F)F)C1 (stereo partly drawn) [Example 434, 1-[2-fluoro-4-(3-fluoro-2-oxo-4-{2-oxo-2-[(3R)-3-(trifluoromethyl)piperidin-1-yl]acetamido)-1,2-dihydropyridin-1-yl)butyl]-N-{[2-fluoro-5-(trifluoromethoxy)phenyl]methyl}-1H-1,2,3-triazole-4-carboxamide]	< 0.1 µM	< 0.1 µM
O=C(Cc1ccccn1)Nc1ccn(CCCCn2cc(C(=O)NCc3cccc(OC(F)(F)F)c3)nn2)c(=O)c1 [Example 6, 1-(4-(2-oxo-4-(2-(pyridin-2-yl)acetamido)pyridin-1 (2H)-yl)butyl)-N-(3-(trifluoromethoxy)benzyl)-1H-1,2,3-triazole-4-carboxamide]	0.5 to 5 µM	< 0.1 µM
O=C(Nc1ccn(CCC(F)Cn2cc(C(=O)NCc3cc(C(F)(F)F)ccn3)nn2)c(=O)c1F)OC1CCC1 (centres unmarked) [Example 377, cyclobutyl N-(3-fluoro-1-{3-fluoro-4-[4-({[4-(trifluoromethyl)pyridin-2-yl]methyl}carbamoyl)-1H-1,2,3-triazol-1-yl]butyl}-2-oxo-1,2-dihydropyridin-4-yl)carbamate]	< 0.1 µM	< 0.1 µM
Cc1ccc(CNC(=O)c2cn(CC(F)CCn3ccc(NC(=O)CC4CCCCO4)cc3=O)nn2)cn1 (centres unmarked) [Example 195, 1-(2-fluoro-4-{4-[2-(oxan-2-yl)acetamido]-2-oxo-1,2-dihydropyridin-1-yl}butyl)-N-[(6-methylpyridin-3-yl)methyl]-1H-1,2,3-triazole-4-carboxamide]	0.5 to 5 µM	0.1 to 0.5 µM
CC(C)(CO)CNC(=O)c1cn(CC(F)CCn2ccc(NC(=O)CN3CCN(C(=O)OC(C)(C)C)CC3)cc2=O)nn1 (centres unmarked) [Example 406, tert-butyl 4-({[1-(3-fluoro-4-{4-[(3-hydroxy-2,2-dimethylpropyl)carbamoyl]-1H-1,2,3-triazol-1-yl}butyl)-2-oxo-1,2-dihydropyridin-4-yl]carbamoyl}methyl)piperazine-1-carboxylate]	> 5 µM	0.5 to 5 µM
O=C(NCc1cccc(OC(F)(F)F)c1)c1cn(CC(F)CCn2ccc(COc3cccc(OC(F)(F)F)c3)cc2=O)nn1 (centres unmarked) [Example 476, 1-(2-fluoro-4-{2-oxo-4-[3-(trifluoromethoxy)phenoxymethyl]-1,2-dihydropyridin-1-yl}butyl)-N-{[3-(trifluoromethoxy)phenyl]methyl}-1H-1,2,3-triazole-4-carboxamide]	0.5 to 5 µM	< 0.1 µM
CC(C)(C)OC(=O)Nc1ccn(CCCCn2cc(C(=O)NCc3cccc(OC(F)(F)F)c3)nn2)c(=O)c1 [Example 3, Tert-butyl(2-oxo-1-(4-(4-((3-(trifluoromethoxy)benzyl)carbamoyl)-1H-1,2,3-triazol-1-yl)butyl)-1,2-dihydropyridin-4-yl)carbamate]	0.1 to 0.5 µM	< 0.1 µM
O=C(Nc1ccn(CCC(F)Cn2cc(C(=O)NCc3cc(C(F)(F)F)ccn3)nn2)c(=O)c1F)C(=O)N1CCCCC1 (centres unmarked) [Example 423, 1-(2-fluoro-4-{3-fluoro-2-oxo-4-[2-oxo-2-(piperidin-1-yl)acetamido]-1,2-dihydropyridin-1-yl}butyl)-N-{[4-(trifluoromethyl)pyridin-2-yl]methyl}-1H-1,2,3-triazole-4-carboxamide]	0.1 to 0.5 µM	< 0.1 µM
O=C(CN1CCSCC1)Nc1ccn(CCC(F)Cn2cc(C(=O)NCc3cccc(OC(F)(F)F)c3)nn2)c(=O)c1 (centres unmarked) [Example 228, 1-(2-fluoro-4-{2-oxo-4-[2-(thiomorpholin-4-yl)acetamido]-1,2-dihydropyridin-1-yl}butyl)-N-{[3-(trifluoromethoxy)phenyl]methyl}-1H-1,2,3-triazole-4-carboxamide]	< 0.1 µM	< 0.1 µM
CC(=O)N1CCN(CC(=O)Nc2ccn(CCC(F)Cn3cc(C(=O)NCc4cccc(OC(F)(F)F)c4)nn3)c(=O)c2)CC1 (centres unmarked) [Example 229, 1-(4-{4-[2-(4-acetylpiperazin-1-yl)acetamido]-2-oxo-1,2-dihydropyridin-1-yl}-2-fluorobutyl)-N-{[3-(trifluoromethoxy)phenyl]methyl}-1H-1,2,3-triazole-4-carboxamide]	0.5 to 5 µM	0.1 to 0.5 µM
O=C(Cc1cccc(OC(F)(F)F)c1)Nc1ccn(CCCCn2ccc(NC(=O)Cc3cccc(OC(F)(F)F)c3)nc2=O)c(=O)n1 [Example 91, N-{2-oxo-1-[4-(2-oxo-4-{2-[3-(trifluoromethoxy)phenyl]acetamido}-1,2-dihydropyrimidin-1-yl)butyl]-1,2-dihydropyrimidin-4-yl}-2-[3-(trifluoromethoxy)phenyl]acetamide]	0.1 to 0.5 µM	< 0.1 µM
CCOC(=O)N1CCN(CC(=O)Nc2ccn(CCC(F)Cn3cc(C(=O)NCc4cccc(OC(F)(F)F)c4)nn3)c(=O)c2)CC1 (centres unmarked) [Example 255, ethyl 4-{[(1-{3-fluoro-4-[4-({[3-(trifluoromethoxy)phenyl]methyl}carbamoyl)-1H-1,2,3-triazol-1-yl]butyl}-2-oxo-1,2-dihydropyridin-4-yl)carbamoyl]methyl}piperazine-1-carboxylate]	< 0.1 µM	< 0.1 µM
CC(C)CNC(=O)Nc1nnc(CCCCn2ccc(NC(=O)CC3CCCC3)c(F)c2=O)s1 [Example 128, 2-cyclopentyl-N-(3-fluoro-1-(4-(5-(3-isobutylureido)-1,3,4-thiadiazol-2-yl)butyl)-2-oxo-1,2-dihydropyridin-4-yl)acetamide]	> 5 µM	0.1 to 0.5 µM
O=C(CC1CCCCO1)Nc1ccn(CCC(F)Cn2cc(C(=O)NCc3cccc(OC(F)(F)F)c3)nn2)c(=O)c1 (centres unmarked) [Example 187, 1-(2-fluoro-4-{4-[2-(oxan-2-yl)acetamido]-2-oxo-1,2-dihydropyridin-1-yl}butyl)-N-{[3-(trifluoromethoxy)phenyl]methyl}-1H-1,2,3-triazole-4-carboxamide]	< 0.1 µM	< 0.1 µM

Further lines, results first:

EC50 (A549 cells)	IC50 [1]	Compound
< 0.1 µM	< 0.1 µM	CC(C)OC(=O)Nc1ccn(CCC(F)Cn2cc(C(=O)NCc3cccc(OC(F)(F)F)c3)nn2)c(=O)c1F (centres unmarked) [Example 354]
< 0.1 µM	< 0.1 µM	O=C(CC1CCCCC1)Nc1ccn(CCC(F)Cn2cc(C(=O)NCc3ccc(C(F)(F)F)nc3)nn2)c(=O)c1F (centres unmarked) [Example 260, 1-{4-[4-(2-cyclohexylacetamido)-3-fluoro-2-oxo-1,2-dihydropyridin-1-yl]-2-fluorobutyl}-N-{[6-(trifluoromethyl)pyridin-3-yl]methyl}-1H-1,2,3-triazole-4-carboxamide]
< 0.1 µM	< 0.1 µM	O=C(Nc1ccn(CCC(F)Cn2cc(C(=O)NCc3cc(C(F)(F)F)ccn3)nn2)c(=O)n1)OCc1ccccc1 (centres unmarked) [Example 488, benzyl N-(1-{3-fluoro-4-[4-({[4-(trifluoromethyl)pyridin-2-yl]methyl}carbamoyl)-1H-1,2,3-triazol-1-yl]butyl}-2-oxo-1,2-dihydropyrimidin-4-yl)carbamate]
< 0.1 µM	< 0.1 µM	CC(C)CC(=O)Nc1ccn(CCCCc2ccc(NC(=O)Cc3cccc(OC(F)(F)F)c3)nn2)c(=O)n1 [Example 111, 3-methyl-N-{2-oxo-1-[4-(6-{2-[3-(trifluoromethoxy)phenyl]acetamido}pyridazin-3-yl)butyl]-1,2-dihydropyrimidin-4-yl}butanamide]
0.1 to 0.5 µM	< 0.1 µM	O=C(NCc1cccc(OC(F)(F)F)c1)c1cn(CC(F)CCn2ccc(COc3c(F)cccc3F)cc2=O)nn1 (centres unmarked) [Example 474, 1-{4-[4-(2,6-difluorophenoxymethyl)-2-oxo-1,2-dihydropyridin-1-yl]-2-fluorobutyl}-N-{[3-(trifluoromethoxy)phenyl]methyl}-1H-1,2,3-triazole-4-carboxamide]
0.1 to 0.5 µM	< 0.1 µM	CC(C)(C)OC(=O)N[C@H]1CCC[C@H](C(=O)Nc2ccn(CCCCn3cc(C(=O)NCc4cccc(OC(F)(F)F)c4)nn3)c(=O)c2)C1 [Example 211, tert-butyl N-[(1S,3S)-3-[(2-oxo-1-{4-[4-({[3-(trifluoro-methoxy)phenyl]methyl}carbamoyl)-1H-1,2,3-triazol-1-yl]butyl}-1,2-dihydropyridin-4-yl)carbamoyl]cyclohexyl]carbamate]
> 5 µM	0.5 to 5 µM	CC(C)NC(=O)Nc1ccn(CCCCc2ccc(NC(=O)Cc3ccccc3)nn2)c(=O)n1 [Example 87, N-{6-[4-(2-oxo-4-{[(propan-2-yl)carbamoyl]amino}-1,2-dihydropyrimidin-1-yl)butyl]pyridazin-3-yl}-2-phenylacetamide]
